From PMC8776894 (Communications Biology, 2022)

How the values were obtained:
[1] = tested on: MCAO/R mice; conditions: mouse, in vivo
[2] = tested on: AKT phosphorylation; assay: p-AKT immunoblot under OGD/R with HOE140; format: cell-based; conditions: HOE140 100 nM, VK 0.0735, 0.735, 7.35 µM
Text: (5 pictures or pasted objects on this page, not shown here)

[3] = tested on: MCAO/R mice; assay: Evans blue extravasation, BBB permeability; format: in vivo, mouse; conditions: VK 300 µg/kg
[4] = tested on: brain of MCAO mice; assay: Fluorescence imaging of FITC-labeled VK in brain of stroke mice; format: in vivo, mouse; conditions: stroke mice, brains collected at 0, 30, 60, 90, 120 min, confocal microscopy of sections
Procedure: A successful MCAO model was established and these mice were used for subsequent experiments. Immediately after surgery, FITC or FITC-labeled VK were administered intravenously and mice were killed after 30 min to isolate the brain and imaged by an imaging system (IVIS Lumina II). For fluorescent imaging, the brain was immediately collected and kept in the dark for 0, 30, 60, and 90 min after the administration of VK. Frozen sections were prepared according to the above method (seen Morphological Assessment). Images were acquired by confocal microscopy (FV1000 MPE-B, Olympus).

[5] = tested on: HT22 hippocampal neuron cells (OGD/R); assay: Live-cell imaging of FITC-labeled VK; format: cell-based, mouse; conditions: HT22 cells after OGD/R, 7.35 µM (b12; method b96: 100 nM), 37 °C, confocal fluorescence
Procedure: VK (Gly–Arg–Pro–Hyp–[…]NH2) was labeled with FITC in the N-terminus. VK (100 nM) was added to each well and, after 15 min of incubation at 37 °C, live-cell images were acquired and processed by confocal microscopy (Zeiss LSM 880). Live-cell images were recorded for 90 min. The negative group was FITC treated without labeled VK.
After 24 h, medium in the transwell
Cell cultures, treatment, and OGD.
Experiments were divided into the four

[6] = tested on: rats; conditions: BK after transient forebrain ischemia in rats; ref not given; cited from earlier work
Procedure: After the onset of cerebral ischemia stroke, ATP levels expeditiously decline during the first 5 min and fall to ~15–30% of the ATP concentration measured in the non-ischemic hemisphere over the first 2 h after ischemia onset. In the present study, VK therapy partially recovered energy metabolism in the ischemic hemisphere as determined by the detection of ATP and LD content. Furthermore, to illustrate the effect of VK on energy metabolism in neurons, the glycolysis and oxidative phosphorylation pathways in neurons were also evaluated by Seahorse after stroke. Increasing evidence indicates tha ...

In the case of HOE140, the “major pharmacological effects of VK under HOE140 preconditioning” value [1] is reported as “blocked”, the “VK-mediated AKT activation” value [2] is reported as “inhibit VK-mediated AKT activation” and the “BBB integrity under combined administration of VK and HOE140, EB extravasation” value [3] is reported as “damaged the BBB integrity”.
With `CC[C@H](C)[C@H](NC(=O)[C@H](CCCNC(=N)N)NC(=O)[C@H](Cc1ccccc1)NC(=O)[C@@H]1CCCN1C(=O)[C@H](CO)NC(=O)[C@H](Cc1ccccc1)NC(=O)CNC(=O)[C@@H]1C[C@@H](O)CN1C(=O)[C@@H]1CCCN1C(=O)[C@H](CCCNC(=N)N)NC(=O)CNC(=S)Nc1ccc2c(c1)C(=O)OC21c2ccc(O)cc2Oc2cc(O)ccc21)C(=O)N[C@@H](CC(=O)O)C(N)=O` [FITC-labeled VK] the “distribution in brain regions” value [4] was “seen in the cortex, hippocampus, and striatum” and the “crossing of the cell membrane, live-cell imaging” value [5] was “partially crossed the cell membrane”.
For “bradykinin (RPPGFSPFR; Bradykinin; UniProt P01042 381-389, looked up) [BK, endogenous peptide]”, the neuroprotection [6] is given as 97%.
With “Lys-(des-Arg9-Leu8)-BK [reference compound]” the “functional injury under combination of VK and B1R antagonist” value [1] was “improved functional injury”.
